What is called IC50 is the concentration that gives 50% inhibition. A high value points to a need for much substance.

Structures can show the parent of a compound that is named as a salt. Where two headings read alike, the source gives them in different places.

Here are results for five compounds from patent US12371432B2, “Haloallylamine compounds and application thereof” (TransThera Sciences (Nanjing), Inc., priority 2019, dated 2025).

For data set [1], the target named is T1, rhAOC1 (Homo sapiens, UniProt P19801).
T1 construct: purchased R&D
T1 sequence (P19801 20-751): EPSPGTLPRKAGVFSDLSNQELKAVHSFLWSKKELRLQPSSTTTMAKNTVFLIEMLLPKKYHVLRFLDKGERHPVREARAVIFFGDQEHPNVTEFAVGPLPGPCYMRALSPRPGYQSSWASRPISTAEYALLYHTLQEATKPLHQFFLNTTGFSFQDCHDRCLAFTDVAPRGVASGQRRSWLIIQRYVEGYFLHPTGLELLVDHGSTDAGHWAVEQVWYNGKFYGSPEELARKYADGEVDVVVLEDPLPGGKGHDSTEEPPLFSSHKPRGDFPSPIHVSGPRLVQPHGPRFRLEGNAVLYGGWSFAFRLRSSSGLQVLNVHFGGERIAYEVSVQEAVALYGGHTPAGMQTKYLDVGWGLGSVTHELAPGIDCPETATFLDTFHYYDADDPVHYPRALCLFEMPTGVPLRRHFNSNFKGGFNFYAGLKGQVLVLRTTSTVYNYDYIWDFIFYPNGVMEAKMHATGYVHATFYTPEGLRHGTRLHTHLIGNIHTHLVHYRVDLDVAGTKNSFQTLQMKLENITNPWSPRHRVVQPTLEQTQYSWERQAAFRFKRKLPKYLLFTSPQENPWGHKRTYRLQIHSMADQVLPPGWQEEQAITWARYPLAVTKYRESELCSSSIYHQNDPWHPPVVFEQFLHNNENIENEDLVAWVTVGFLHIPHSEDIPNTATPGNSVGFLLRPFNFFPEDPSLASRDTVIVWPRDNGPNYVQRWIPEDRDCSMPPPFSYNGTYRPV
The data set is described as follows: Selectivity against rhAOC1 enzyme (Biological Example 2). In kind it is biochemical. The following applies: Table 2; histamine substrate, Amplex Red/HRP. The protocol: 2. Selectivity of Compounds Against rhAOC1 Enzyme
(§1) (1) Instrument, Consumable and Reagent
Microplate reader (Perkin Elmer, Nivo 5S), black unclear-bottom 96-well plate (Corning) and rhAOC1 (R&D)
(§2) (2) Preparation of Concentration Gradient Compound Solutions
An appropriate amount of the compound to be tested was taken, dissolved in DMSO to 10 mM and then stored. Before the study, an appropriate amount of mother liquor of the 10 mM compound to be tested was taken and gradiently diluted 3-fold with DMSO, 10 concentration gradients in total. Each concentration gradient was then diluted 10-fold with 0.1 M of PBS.
(§3) (3) Preparation of Enzyme Solutions
An appropriate amount of rhAOC1 mother liquor with a concentration of 0.441 mg/mL was taken and diluted with an appropriate amount of 50 mM HEPES buffer solution to obtain enzyme solutions of 4× concentrations.
(§4) (4) Preparation of Substrate Mixtures of 2× Concentrations
An appropriate amount of histamine was weighed and dissolved with 50 mM of HEPES buffer solution to obtain 20 mM of histamine solution. The histamine solution was added with 2 mM of Amplex Red mother liquor and 500 U/mL of HRP mother liquor and diluted with 50 mM of HEPES buffer solution to obtain substrate mixtures of 2× concentrations.
(§5) 10 μL compound solutions of different concentrations, 25 μL rhAOC1 enzyme solutions of 4× concentrations and 15 μL of 50 mM HEPES buffer solution were first added into a 96-well plate, shaken to be mixed uniformly and then incubated at 37° C. for 30 min. 50 μL substrate mixtures of 2× concentrations were then added into each well, and the microplate reader was immediately used to detect fluorescence intensity of each well with 580 nm (20 nm) exciting light and 620 nm (10 nm) emission light for 5 min each time, 30 min in total. The inhibition rate was calculated according to the following formula: V (RFU/min)=(Ft (RFU)−F0 (RFU))/(time(min)) Inhibition rate (%)=100%−Vcmpd (RFU/min)/Vmax (RFU/min)×100%
(§6) V: fluorescence change rate; Ft: fluorescence reading at time point t; F0: initial fluorescence reading; Time: duration t; Vcmpd: fluorescence change rate of tested compound; Vmax: Max hole fluorescence change rate.
(§7) (6) Fitting of Dose-Response Curve
(§8) With the log value of concentration as the X axis and the percent inhibition rate as the Y axis, the log (inhibitor) vs. response-variable slope of analysis software GraphPad Prism 5 was used to fit a dose-response curve, thus obtaining the IC50 value of activity of each compound against the enzyme.

In data set [2] the target is T2, rhVAP-1 (Homo sapiens, UniProt Q16853).
T2 construct: purchased PeproTech
T2 sequence (Q16853 27-763 limits assumed): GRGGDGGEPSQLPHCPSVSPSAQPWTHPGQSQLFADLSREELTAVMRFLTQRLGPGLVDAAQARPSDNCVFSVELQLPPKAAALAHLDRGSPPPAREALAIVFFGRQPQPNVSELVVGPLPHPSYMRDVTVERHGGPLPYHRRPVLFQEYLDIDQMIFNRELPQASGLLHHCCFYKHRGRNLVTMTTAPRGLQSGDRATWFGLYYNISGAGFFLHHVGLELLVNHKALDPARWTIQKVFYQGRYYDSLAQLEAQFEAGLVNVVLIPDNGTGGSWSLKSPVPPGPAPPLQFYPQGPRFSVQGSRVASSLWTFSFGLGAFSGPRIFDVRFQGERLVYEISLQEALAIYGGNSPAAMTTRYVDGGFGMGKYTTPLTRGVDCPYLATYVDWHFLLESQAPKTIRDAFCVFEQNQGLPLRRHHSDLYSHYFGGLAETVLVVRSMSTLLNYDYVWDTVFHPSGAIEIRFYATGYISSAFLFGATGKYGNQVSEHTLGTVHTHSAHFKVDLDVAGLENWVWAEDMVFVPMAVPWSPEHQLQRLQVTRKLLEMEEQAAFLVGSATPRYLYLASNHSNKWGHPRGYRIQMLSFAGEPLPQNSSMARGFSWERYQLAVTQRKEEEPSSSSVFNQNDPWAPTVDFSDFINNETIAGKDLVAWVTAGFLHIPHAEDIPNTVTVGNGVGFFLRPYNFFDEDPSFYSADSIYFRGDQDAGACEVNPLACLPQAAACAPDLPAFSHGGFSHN
Briefly: Inhibitory activity against rhVAP-1 enzyme (Biological Example 2). The following applies: Table 2; benzylamine substrate, Amplex Red/HRP. In kind it is biochemical. The protocol: 1. Inhibitory Activity of Compounds Against rhVAP-1 Enzyme
as §1
Microplate reader (Perkin Elmer, Nivo 5S), black unclear-bottom 96-well plate (Corning) and rhVAP-1 (PeproTech)
as §2
An appropriate amount of the compound to be tested was taken, dissolved in DMSO to 10 mM and then stored. Before the study, an appropriate amount of mother liquor of the 10 mM compound to be tested was taken and gradiently diluted 3-fold with DMSO, 10 concentration gradients in total. Each concentration gradient was then diluted 100-fold with 0.1 M of PBS.
as §3
An appropriate amount of protein diluent was added into rhVAP-1 powder, obtaining 1 mg/mL of mother liquor for storage. Before the study, PBS was used to carry out dilution to obtain enzyme solutions of 4× concentrations.
as §4
An appropriate amount of benzylamine was weighed and dissolved with PBS to obtain 200 mM of benzylamine solution. The benzylamine solution was added with 2 mM of Amplex Red mother liquor and 500 U/mL of HRP mother liquor and diluted with PBS to obtain substrate mixtures of 2× concentrations.
as §5, with “rhVAP-1” for “rhAOC1”, “PBS” for “50 mM HEPES buffer solution”, “perform detection” for “detect fluorescence intensity of each well”
as §6, §7, §8

A short description of data set [3]: Rat blood-brain barrier evaluation. Type of data set: in vivo. The following applies: rat, oral, SD rats, intragastric 10 mg/kg. The protocol: (1) Animal Administration and Sampling Method:
The study compound A1, the compound A41 and PXS-4728 were dissolved in normal saline to prepare solutions. The prepared solutions were separately administered by intragastric administration to SD rats at a dose of 10 mg/kg. […] At each time point, samples were collected from three SD rats.
On the day of the study, the animals were fixed to collect 0.15 mL of blood from the jugular vein at each set time point, and the whole blood samples were put into anticoagulation tubes containing EDTA-K2. After blood sampling was completed, heart perfusion was immediately performed for the animals, and following the heart perfusion, brain tissue samples were collected.
After the whole blood samples were centrifuged under the condition of 1,524 g for 10 min, top plasma samples were collected into sample tubes. The tissue samples were weighed, added with 20% of aqueous methanol solution at a weight-to-volume ratio of 1:5 (tissue:homogenate) and homogenized. The biological samples were stored at −40° C. to −20° C. for analysis.
(4) Sample Analysis Method:
(§9) Plasma sample: The samples to be tested were taken out of the refrigerator, naturally thawed at room temperature and then swirled for 5 min, and 20 μL of plasma sample was accurately pipetted into 1.5 mL centrifuge tubes. 100 μL of internal standard working solution (solution of 5 ng/mL verapamil and 50 ng/mL glibenclamide in acetonitrile) was added, and uniform mixing was performed. After 1 min of swirling, centrifugation was performed at 13,000 rpm for 8 min. 40 μL of supernate was accurately pipetted into a 96-well plate added with 160 μL water/well in advance. Uniform mixing was performed by swirling for 10 min, followed by LC-MS/MS assay.
as §9, with “Brain tissue” for “Plasma”, “50” for “20”, “250” for “100”, “30” for “40”, “150” for “160”
(5) Data Processing Method:
Analyst 1.6.2 from AB Sciex was used to output concentration results of tested compounds. Microsoft Excel was used to calculate parameters such as mean value, standard deviation and variation coefficient (excluding those outputted directly by Analyst 1.6.2).

With `CCNC(=O)c1cnn(C/C(=C/F)CN)c1` [Compound B2, (E)-1-(2-(aminomethyl)-3-fluoroallyl)-N-ethyl-1H-pyrazole-4-carboxamide], the half-inhibitory concentration (IC50) in data set [1] is 5380 nM; in data set [2] it was 55 nM.
Taken in the same sequence, the figures for `NC/C(=C\F)Cn1cc(C(=O)NC2CC2)cn1` [Compound B4 hydrochloride, (E)-1-(2-(aminomethyl)-3-fluoroallyl)-N-cyclopropyl-1H-pyrazole-4-carboxamide] were 5930 nM and 51 nM.
In the case of `CC(C)(C)NC(=O)c1ccc(OC/C(=C/F)CN)cc1` [PXS-4728, reference compound], the concentration at 0.167 h was 337 ng/g in data set [3] (brain, 0.167 h, read-out: Average Brain tissue concentration (N=3)) and 373 ng/mL in data set [3] (plasma, 0.167 h, read-out: Average Plasma concentration (N=3)). In addition, the concentration at 1 h in data set [3] (brain, 1 h, read-out: Average Brain tissue concentration (N=3)) stood at 1400 ng/g; in data set [3] (plasma, 1 h, read-out: Average Plasma concentration (N=3)), 1040 ng/mL. For the same compound, the concentration at 6 h amounted to 311 ng/g in data set [3] (brain, 6 h, read-out: Average Brain tissue concentration (N=3)) and 175 ng/mL in data set [3] (plasma, 6 h, read-out: Average Plasma concentration (N=3)). Further, the Kp at 0.167 h in data set [3] (brain/plasma, 0.167 h, read-out: Mean brain tissue/plasma concentration ratio) came to 0.89. Moreover, in data set [3] (brain/plasma, 1 h, read-out: Mean brain tissue/plasma concentration ratio), the Kp at 1 h came out at 1.34. In addition, the Kp at 6 h in data set [3] (brain/plasma, 6 h, read-out: Mean brain tissue/plasma concentration ratio) came to 1.89.
As to `NC/C(=C\F)Cn1cc2c(n1)CCN(C1CCCC1)C2=O` [Compound A10 hydrochloride, (E)-2-(2-(aminomethyl)-3-fluoroallyl)-5-cyclopentyl-2,5,6,7-tetrahydro-4H-pyrazolo[4,3-c]pyridin-4-one], the half-maximal inhibitory concentration (IC50) came out at 1240 nM in data set [1] and 40 nM in data set [2].
The matching figures for `COC1CCN(C(=O)c2ccc3c(ccn3C/C(=C/F)CN)c2)CC1` [Compound C14 hydrochloride, (E)-(1-(2-(aminomethyl)-3-fluoroallyl)-1H-indol-5-yl)(4-methoxypiperidin-1-yl)methanone]: 13100 nM and 50 nM.
